Assay results published in patent publication US20230355608A1, “TARGETING POLYCYTHEMIA VERA (PV)-INITIATING CELLS BY BLOCKING LEUKOTRIENE BINDING TO THEIR RECEPTORS” (UNIVERSITY OF MASSACHUSETTS, priority 2020, published 2023).
“Also recorded” adds a separate entry of the source.

Experiments:
[1] = test system: human CD34+ cells from Polycythemia Vera (PV) patients; settings: Chen et al., Cancer Research 77(1):164-174; cited from earlier work
[2] = test system: JAK2V617F-induced PV in mice; settings: Chen et al., Cancer Research 77(1):164-174; cited from earlier work
Ba/F3 cells = assay: Cell growth, trypan blue exclusion cell count; type: cell-based, mouse; settings: various doses (10-40 μM), 24 and 48 hours
Experimental: (§1) A mouse Ba/F3 cell line transduced with pMSCV-IRES-GFP was used as a control. Mouse JAK2V617F-GFP-expressing Ba/F3 cell line was kindly provided by Dr. Ross Levine (Human Oncology and Pathogenesis Program, Memorial Sloan-Kettering Cancer Center, New York, NY). Human JAK2V617F-expressing HEL cell line was purchased from ATCC. Cell lines were cultured in RPMI-1640 medium containing 10% FCS and 50 μmol/L 2-mercaptoethanol. Ba/F3 cell line was cultured in the medium mentioned above with 10 ng/ml IL3. C57BL/6J mice were obtained from The Jackson Laboratory.
(§2) Cell numbers were counted in duplicates by trypan blue (Sigma-Aldrich) exclusion at 24 h and 48 h, respectively. FACS analysis was applied for cell cycle test using Hoechst and Pyronin (Sigma-Aldrich) staining, and for apoptosis assay staining with Annexin V and 7-AAD (eBiosciences) according to the manufacturer's instructions. Results are expressed as the mean±SD.

[3] = test system: JAK2V617F-expressing Ba/F3 cells; assay: Cell growth, trypan blue exclusion cell count; type: cell-based, mouse; settings: various doses (10-40 μM), 24 and 48 hours
Experimental: as §1, §2

[4] = test system: JAK2V617F-expressing human HEL cells; assay: Cell growth, trypan blue exclusion cell count; type: cell-based; settings: various doses (10-40 μM), 24 and 48 hours
Experimental: as §1, §2

Ba/F3-JAK2V617F cells [5] = assay: Cell-cycle progression by FACS (Hoechst and Pyronin); type: cell-based, mouse
Experimental: as §1, §2

parental Ba/F3 cells = assay: as above; type: cell-based, mouse; settings: parental Ba/F3 cells that do not express JAK2V617F
Experimental: as §1, §2

HEL cells [6] = assay: as above; type: cell-based, human
Experimental: as §1, §2

Ba/F3-JAK2V617F cells [7] = assay: Apoptosis assay by FACS (Annexin V and 7-AAD); type: cell-based, mouse; settings: compared with Ba/F3 cells
Experimental: as §1, §2

HEL cells [8] = assay: Apoptosis assay by FACS (Annexin V and 7-AAD); type: cell-based, human; settings: compared with Ba/F3 cells
Experimental: as §1, §2

[9] = test system: JAK2V617F-induced PV mice
Experimental: The bone marrow cells from donor mice, pretreated with 5-fluorouracil (5-FU), were infected with retrovirus containing pMSCV-JAK2V617F-GFP under conditions for the induction of PV as described previously, followed by transplantation of the transduced cells into C57BL/6J recipient mice.
To test this hypothesis, bone marrow cells (BM) were collected for FCM analysis after 4 months treatment.
PV model was induced in mice as follows: Bone marrow cells from 5-FU-treated (200 mg/kg) donor mice were transduced twice with JAK2V617F retrovirus in the presence of IL-3, IL-6, and stem cell factor (SCF). The recipient mice received 1,100 cGy lethal gamma irradiation (given by 2 split 550-cGy doses), followed by 2.0×10^6 cells transplantation via tail vein injection.
Hematopoietic cells were collected from peripheral blood and bone marrow of the PV mice, and red blood cells (RBCs) were eliminated using RBC lysis buffer (pH 7.4). Then the cells were stained with fluorescence-labeled antibodies (Gr−1 for neutrophils, c-kit and Sca−1 for stem cells) and subjected to FACS analysis. These antibodies were purchased from eBioscience Biotechnology. Data were acquired on a FACS Calibur flow cytometric analyzer (Becton Dickinson).
Water was used as placebo.

K562 cells = settings: Yektaei-Karin et al. 2017; cited from earlier work
KCL22 cells = settings: Yektaei-Karin et al. 2017; cited from earlier work
KU812 cells = settings: Yektaei-Karin et al. 2017; cited from earlier work
[10] = test system: primary CD34+ blood cells from two CML patients; settings: Yektaei-Karin et al. 2017; cited from earlier work
[11] = PV mice, 150 mg/kg once a day by gavage, vs placebo
[12] = PV mice, 150 mg/kg once a day by gavage, vs placebo, from 3rd month post treatment
[13] = PV mice, 150 mg/kg once a day by gavage, vs placebo, 150 mg/kg
[14] = PV mice, after 4 months treatment, vs placebo

CC(c1cc2ccccc2s1)N(O)C(N)=O (centres unmarked) [Zileuton]
proliferation of human CD34+ cells from PV patients [1]: reducing proliferation | development of PV in mice [2]: attenuates the development of PV

CC(C)(O)c1ccccc1CC[C@@H](SCC1(CC(=O)[O-])CC1)c1cccc(/C=C/c2ccc3ccc(Cl)cc3n2)c1.[Na+] [Montelukast, (R-(E))-1-(((1-(3-(2-(7-Chloro-2-quinolinyl)ethenyl)phenyl)-3-(2-(1-hydroxy-1-methylethyl)phenyl)propyl)thio)methyl)-cyclopropaneacetic acid]
cell growth (Ba/F3 cells): dose-dependent growth inhibition | cell growth [3]: dose-dependent growth inhibition | cell growth [4]: dose-dependent growth inhibition | cell-cycle progression (Ba/F3-JAK2V617F cells [5]): blockade of cell-cycle progression | cell-cycle progression (parental Ba/F3 cells): no significant cell-cycle block effect | cell-cycle progression (HEL cells [6]): blockade of cell-cycle progression | apoptosis (Ba/F3-JAK2V617F cells [7]): more dramatic apoptosis | apoptosis (HEL cells [8]): more dramatic apoptosis | non GFP (GFP-) cells (FIG. 5) ([9]; PV mice vs placebo, at 10 weeks): showed a loss | GFP+ cells (FIG. 5) ([9]; PV mice vs placebo, by 6 and 10 weeks post treatment): loss of the GFP+ cells | level of PLT [9, 11]: did not significantly affect | level of RBC [9, 11]: did not significantly affect | GFP+Gr-1+ PV cell number in peripheral blood [9, 12]: increased more slowly | GFP+Gr-1+ PV cell percentage in peripheral blood [9, 12]: increased more slowly | HCT [9, 13]: had an inhibitor compound effect | HGB [9, 13]: had an inhibitor compound effect | fibrosis in bone marrow [9, 13]: efficiently relieved the fibrosis; also recorded: efficiently relieved fibrosis morphology | GFP-Gr-1+ cell number in peripheral blood ([9]; PV mice, 150 mg/kg once a day by gavage, vs placebo, normal cells, 150 mg/kg): didn't show significant difference; also recorded: did not show a significant difference | GFP+ PV cell number in BM [9, 14]: dramatic decrease | GFP+ PV cell percentage in BM [9, 14]: dramatic decrease | cell growth (K562 cells): significantly reduced the growth | cell growth (KCL22 cells): significantly reduced the growth | cell growth (KU812 cells): significantly reduced the growth | cell growth [10]: significantly reduced the growth
